The text below walks through data of US11464770B2, “Anticancer pharmaceutical composition” (NATIONAL CANCER CENTER, priority 2016, dated 2022).

The test system of the assay is breast cancer cell lines (e.g. MDA-MB-231, SK-BR-3, MDA-MB-468, HCC1954). Briefly: Cell based assay, cell viability (CellTiter-Glo), breast cancer cell lines. To be noted: 72 hours, CellTiter-Glo. As for the experimental part:
Commercially available bladder cancer, prostate cancer, lung cancer, breast cancer, blood cancer, pancreatic cancer, colorectal cancer, brain cancer, neuroblastoma, melanoma, liver cancer, cervical carcinoma, ovarian cancer, renal cancer, and papilloma cell lines were each treated with trypsin-EDTA and cultured, followed by being seeded in each well of a 96 well plate. After 24 hours of treatment at constant temperature, the respective cells were treated with the candidate compound so that a final concentration became 0 to 2 μM. The treated cells were additionally cultured for 72 hours, and cell viability was measured by using an ATP detection method (CellTiter-Glo® Luminescent Cell Viability Assay, Promega).
For orientation: ATP-based viability assays read luminescence as a measure of living cells.

The mark [1] stands for this setting: Breast cancer cell line MDA-MB-231-L/DOX, read-out: IC50, MDA-MB-231-L/DOX.
[2] abbreviates: Homo sapiens, Breast cancer cell line BT-20, read-out: IC50, BT-20.
Setting [3] is: Homo sapiens, Breast cancer cell line HCC1395, read-out: IC50, HCC1395.
Setting [4] is: Homo sapiens, Breast cancer cell line HCC1954, read-out: IC50, HCC1954.
[5] abbreviates: Homo sapiens, Breast cancer cell line JIMT-1, read-out: IC50, JIMT-1.
Where [6] appears, read: Homo sapiens, Breast cancer cell line MCF7, read-out: IC50, MCF7.
The mark [7] stands for this setting: Homo sapiens, Breast cancer cell line MDA-MB-231, read-out: IC50, MDA-MB-231.
Setting [8] is: Homo sapiens, Breast cancer cell line MDA-MB-468, read-out: IC50, MDA-MB-468.
Where [9] appears, read: Homo sapiens, Breast cancer cell line SK-BR-3, read-out: IC50, SK-BR-3.

Where two headings read alike, the source gives them in different places.

In the case of `CC(=O)c1c([S+]([O-])c2ccc(Br)cc2)[nH]c2c(Br)ccc(Cl)c2c1=O` (stereo not drawn) [Compound 17, 3-acetyl-8-bromo-2-((4-bromophenyl)sulfinyl)-5-chloroquinolin-4(1H)-one], the IC50 was greater than 2000 nM under setting [1]; greater than 2000 nM under setting [2]; greater than 10000 nM under setting [3]; greater than 2000 nM under setting [4]; greater than 10000 nM under setting [5]; greater than 2000 nM under setting [6]. For the same compound, the IC50 is greater than 2000 nM under setting [7], greater than 2000 nM under setting [8] and greater than 2000 nM under setting [9].
Consider `CSc1c(C(C)=O)c(=O)c2c(Cl)ccc(Br)c2n1C(C)=O` [Compound 18, 1,1′-(8-bromo-5-chloro-2-(methylthio)-4-oxoquinoline-1,3(4H)-diyl)bis(ethan-1-one)], for which the IC50 by setting is: under setting [1], greater than 2000 nM; under setting [2], greater than 2000 nM; under setting [3], greater than 10000 nM; under setting [4], greater than 2000 nM; under setting [5], greater than 10000 nM; under setting [6], greater than 2000 nM. The IC50 reads like this: under setting [7], greater than 2000 nM; under setting [8], greater than 2000 nM; under setting [9], greater than 2000 nM.
Regarding `CC(=O)c1c([S+](C)[O-])n(C(C)=O)c2c(Br)ccc(Cl)c2c1=O` (stereo not drawn) [Compound 19, 1,1′-(8-bromo-5-chloro-2-(methylsulfinyl)-4-oxoquinoline-1,3(4H)-diyl)bis(ethan-1-one)], the IC50 was greater than 2000 nM under setting [1]; greater than 2000 nM under setting [2]; greater than 10000 nM under setting [3]; greater than 2000 nM under setting [4]; greater than 10000 nM under setting [5]; greater than 2000 nM under setting [6]. The IC50 runs as follows: under setting [7], greater than 2000 nM; under setting [8], greater than 2000 nM; under setting [9], greater than 2000 nM.
`CC(=O)c1c([S+]([O-])Cc2ccccc2)n(C(=O)c2ccc(Br)cc2)c2c(Br)ccc(Cl)c2c1=O` (stereo not drawn) [Compound 20, 3-acetyl-2-(benzylsulfinyl)-8-bromo-1-(4-bromobenzoyl)-5-chloroquinolin-4(1H)-one]: the IC50 reads like this: under setting [1], greater than 2000 nM; under setting [2], greater than 2000 nM; under setting [3], greater than 10000 nM; under setting [4], greater than 2000 nM; under setting [5], greater than 10000 nM; under setting [6], greater than 2000 nM. Further, the IC50 by setting is: under setting [7], greater than 2000 nM; under setting [8], greater than 2000 nM; under setting [9], greater than 2000 nM.
With `CC(=O)c1c(S(C)(=O)=O)n(C(=O)c2ccc(Br)cc2)c2c(Br)ccc(Cl)c2c1=O` [Compound 21, 3-acetyl-8-bromo-1-(4-bromobenzoyl)-5-chloro-2-(methylsulfonyl)quinolin-4(1H)-one], the IC50 was greater than 2000 nM under setting [1]; greater than 2000 nM under setting [2]; greater than 10000 nM under setting [3]; greater than 2000 nM under setting [4]; greater than 10000 nM under setting [5]; greater than 2000 nM under setting [6]. Also, the IC50 reads like this: under setting [7], greater than 2000 nM; under setting [8], greater than 2000 nM; under setting [9], greater than 2000 nM.
`CC(=O)c1c([S+](C)[O-])n(Cc2ccc(F)c(Cl)c2)c2c(Br)ccc(Cl)c2c1=O` (stereo not drawn) [Compound 22, 3-acetyl-8-bromo-5-chloro-1-(3-chloro-4-fluorobenzyl)-2-(methylsulfinyl)quinolin-4(1H)-one]: the IC50 was greater than 2000 nM under setting [1]; greater than 2000 nM under setting [2]; greater than 10000 nM under setting [3]; greater than 2000 nM under setting [4]; greater than 10000 nM under setting [5]; greater than 2000 nM under setting [6]. In addition, the IC50 was greater than 2000 nM under setting [7], greater than 2000 nM under setting [8] and greater than 2000 nM under setting [9].
As to `CC(=O)c1c(SCc2ccccc2)n(C(=O)c2ccc(Br)cc2)c2c(Br)ccc(Cl)c2c1=O` [Compound 23, 3-acetyl-2-(benzylthio)-8-bromo-1-(4-bromobenzoyl)-5-chloroquinolin-4(1H)-one], the IC50 under setting [1] is greater than 2000 nM; the IC50 under setting [2] is greater than 2000 nM; the IC50 under setting [3] is greater than 10000 nM; the IC50 under setting [4] is greater than 2000 nM; the IC50 under setting [5] was greater than 10000 nM; the IC50 under setting [6] is greater than 2000 nM. For the same compound, the IC50 was greater than 2000 nM under setting [7], greater than 2000 nM under setting [8] and greater than 2000 nM under setting [9].
For `CC(=O)c1c(SC(C)C)[nH]c2c(Br)ccc(Cl)c2c1=O` [Compound 24, 3-acetyl-8-bromo-5-chloro-2-(isopropylthio)quinolin-4(1H)-one], the IC50 was greater than 2000 nM under setting [1]; greater than 2000 nM under setting [2]; greater than 10000 nM under setting [3]; greater than 2000 nM under setting [4]; greater than 10000 nM under setting [5]; greater than 2000 nM under setting [6]. Moreover, the IC50 by setting is: under setting [7], greater than 2000 nM; under setting [8], greater than 2000 nM; under setting [9], greater than 2000 nM.
Regarding `CC(=O)c1c([S+]([O-])C(C)C)[nH]c2c(Br)ccc(Cl)c2c1=O` (stereo not drawn) [Compound 25, 3-acetyl-8-bromo-5-chloro-2-(isopropylsulfinyl)quinolin-4(1H)-one], the IC50 runs as follows: under setting [1], greater than 2000 nM; under setting [2], greater than 2000 nM; under setting [3], greater than 10000 nM; under setting [4], greater than 2000 nM; under setting [5], greater than 10000 nM; under setting [6], greater than 2000 nM. In addition, the IC50 under setting [7] is greater than 2000 nM, the IC50 under setting [8] is greater than 2000 nM and the IC50 under setting [9] is 1720 nM.
On to `CC(=O)c1c([S+]([O-])C(C)c2ccccc2)[nH]c2c(Br)ccc(Cl)c2c1=O` (stereo not drawn) [Compound 26, 3-acetyl-8-bromo-5-chloro-2-((1-phenylethyl)sulfinyl)quinolin-4(1H)-one], for which the IC50 reads like this: under setting [1], greater than 2000 nM; under setting [2], greater than 2000 nM; under setting [3], greater than 10000 nM; under setting [4], greater than 2000 nM; under setting [5], greater than 10000 nM; under setting [6], greater than 2000 nM. For the same compound, the IC50 under setting [7] is greater than 2000 nM, the IC50 under setting [8] was greater than 2000 nM and the IC50 under setting [9] is greater than 2000 nM.
In the case of `CC(=O)c1c(SCc2cccc(C#N)c2)[nH]c2c(Br)ccc(Cl)c2c1=O` [Compound 27, 3-(((3-acetyl-8-bromo-5-chloro-4-oxo-1,4-dihydroquinolin-2-yl)thio)methyl)benzonitrile], the IC50 reads like this: under setting [1], greater than 2000 nM; under setting [2], greater than 2000 nM; under setting [3], greater than 10000 nM; under setting [4], greater than 2000 nM; under setting [5], greater than 10000 nM; under setting [6], greater than 2000 nM. In addition, the IC50 runs as follows: under setting [7], greater than 2000 nM; under setting [8], greater than 2000 nM; under setting [9], greater than 2000 nM.
For `CC(=O)c1c([S+]([O-])Cc2cccc(C#N)c2)[nH]c2c(Br)ccc(Cl)c2c1=O` (stereo not drawn) [Compound 28, 3-(((3-acetyl-8-bromo-5-chloro-4-oxo-1,4-dihydroquinolin-2-yl)sulfinyl)methyl)benzonitrile], the IC50 is greater than 2000 nM under setting [1]; greater than 2000 nM under setting [2]; greater than 10000 nM under setting [3]; greater than 2000 nM under setting [4]; greater than 10000 nM under setting [5]; greater than 2000 nM under setting [6]. The IC50 is 1410 nM under setting [7], greater than 2000 nM under setting [8] and 660 nM under setting [9].
Consider `CC(=O)c1c(SCc2ccc(F)c(Cl)c2)[nH]c2c(Br)ccc(Cl)c2c1=O` [Compound 30, 3-acetyl-8-bromo-5-chloro-2-((3-chloro-4-fluorobenzyl)thio)quinolin-4(1H)-one], for which the IC50 runs as follows: under setting [1], greater than 2000 nM; under setting [2], greater than 2000 nM; under setting [3], greater than 10000 nM; under setting [4], greater than 2000 nM; under setting [5], greater than 10000 nM; under setting [6], greater than 2000 nM. The IC50 reads like this: under setting [7], greater than 2000 nM; under setting [8], greater than 2000 nM; under setting [9], greater than 2000 nM.
Regarding `CC(=O)c1c(SCc2ccc([N+](=O)[O-])cc2)[nH]c2c(Br)ccc(Cl)c2c1=O` [Compound 32, 3-acetyl-8-bromo-5-chloro-2-((4-nitrobenzyl)thio)quinolin-4(1H)-one], the IC50 is greater than 2000 nM under setting [1]; greater than 2000 nM under setting [2]; greater than 10000 nM under setting [3]; greater than 2000 nM under setting [4]; greater than 10000 nM under setting [5]; greater than 2000 nM under setting [6]. For the same compound, the IC50 by setting is: under setting [7], greater than 2000 nM; under setting [8], greater than 2000 nM; under setting [9], greater than 2000 nM.
For the compound `CSc1c(C(C)=O)c(=O)c2c(Cl)ccc(Br)c2n1S(C)(=O)=O` [Compound 35, 3-acetyl-8-bromo-5-chloro-1-(methylsulfonyl)-2-(methylthio)quinolin-4(1H)-one], the IC50 runs as follows: under setting [1], greater than 2000 nM; under setting [2], greater than 2000 nM; under setting [3], greater than 10000 nM; under setting [4], greater than 2000 nM; under setting [5], greater than 10000 nM; under setting [6], greater than 2000 nM. For the same compound, the IC50 is, setting by setting: under setting [7], greater than 2000 nM; under setting [8], greater than 2000 nM; under setting [9], greater than 2000 nM.
As to `CC(=O)c1c([S+](C)[O-])n(S(=O)(=O)C(F)(F)F)c2c(Br)ccc(Cl)c2c1=O` (stereo not drawn) [Compound 36, 3-acetyl-8-bromo-5-chloro-2-(methylsulfinyl)-1-((trifluoromethyl)sulfonyl)quinolin-4(1H)-one], the IC50 was greater than 2000 nM under setting [1]; greater than 2000 nM under setting [2]; greater than 10000 nM under setting [3]; greater than 2000 nM under setting [4]; greater than 10000 nM under setting [5]; greater than 2000 nM under setting [6]. The IC50 was greater than 2000 nM under setting [7], greater than 2000 nM under setting [8] and greater than 2000 nM under setting [9].
As for `CSc1c(C(C)=O)c(=O)c2c(Cl)ccc(Br)c2n1S(=O)(=O)c1ccc(Cl)cc1` [Compound 37, 3-acetyl-8-bromo-5-chloro-1-((4-chlorophenyl)sulfonyl)-2-(methylthio)quinolin-4(1H)-one], the IC50 by setting is: under setting [1], greater than 2000 nM; under setting [2], greater than 2000 nM; under setting [3], greater than 10000 nM; under setting [4], greater than 2000 nM; under setting [5], greater than 10000 nM; under setting [6], greater than 2000 nM. Besides, the IC50 reads like this: under setting [7], greater than 2000 nM; under setting [8], greater than 2000 nM; under setting [9], greater than 2000 nM.
As to `CSc1c(C(C)=O)c(=O)c2c(Cl)ccc(Br)c2n1S(=O)(=O)c1ccc([N+](=O)[O-])cc1` [Compound 38, 3-acetyl-8-bromo-5-chloro-2-(methylthio)-1-((4-nitrophenyl)sulfonyl)quinolin-4(1H)-one], the IC50 runs as follows: under setting [1], greater than 2000 nM; under setting [2], greater than 2000 nM; under setting [3], greater than 10000 nM; under setting [4], greater than 2000 nM; under setting [5], greater than 10000 nM; under setting [6], greater than 2000 nM. Further, the IC50 reads like this: under setting [7], greater than 2000 nM; under setting [8], greater than 2000 nM; under setting [9], greater than 2000 nM.
